Assay results: patent US20250388574A1, “HETEROCYCLIC COMPOUNDS AS TRIGGERING RECEPTOR EXPRESSED ON MYELOID CELLS 2 AGONISTS AND METHODS OF USE” (AMGEN INC., priority 2020, published 2025)

Target: hTREM2 (Homo sapiens, UniProt Q9NZC2)
Assay: Phospho-Syk AlphaScreen/AlphaLISA assay in TREM2 and DAP12 overexpressing HEK293 cells (Example A1)
Assay type: cell-based
Set-up: expressed in transfected cells
Conditions: HEK293 cells; for EC50: read-out: hTREM2 EC50
Summary of the method: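 Single-cell-cloned HEK293 stably overexpressing TREM2 and DAP12, plated 20,000 cells/well for 20 h, then exposed to compounds (1% DMSO) 45 min at room temperature. Lysates probed for phospho-Syk by AlphaLISA sandwich (anti-pSyk, biotinylated anti-Syk); signal normalized to percent of control (100 nM anti-TREM2 antibody vs isotype) and fitted by 4-parameter logistic.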

hTREM2, sequence (Q9NZC2 19-230): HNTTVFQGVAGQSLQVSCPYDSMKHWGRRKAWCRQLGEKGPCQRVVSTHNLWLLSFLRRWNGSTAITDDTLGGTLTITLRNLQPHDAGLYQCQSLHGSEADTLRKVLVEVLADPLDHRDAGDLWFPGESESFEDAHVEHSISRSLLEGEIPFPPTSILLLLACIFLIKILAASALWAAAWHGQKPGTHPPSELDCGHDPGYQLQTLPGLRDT
hTREM2, sequence (O43914 22-113 partner): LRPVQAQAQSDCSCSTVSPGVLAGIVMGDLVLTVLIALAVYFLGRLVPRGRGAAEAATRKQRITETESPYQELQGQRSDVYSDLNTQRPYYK

Cc1nc2cc(N3CCO[C@@H](c4cnn(C)c4)C3)nc(-c3ccc(F)cc3F)c2c(=O)n1C [Example 8, 5-(2,4-difluorophenyl)-2,3-dimethyl-7-((2S)-2-(1-methyl-1H-pyrazol-4-yl)-4-morpholinyl)-pyrido[4,3-d]pyrimidin-4(3H)-one]
Emax: ++++ (Emax>300) | EC50: 0.05 to 0.5 µM

Cc1nc2cc(N3CCc4cnccc4C3)nc(-c3ccc(Cl)cc3F)c2c(=O)n1C [Example 101, 5-(4-chloro-2-fluorophenyl)-7-(3,4-dihydro-2,6-naphthyridin-2(1H)-yl)-2,3-dimethylpyrido[4,3-d]pyrimidin-4(3H)-one]
Emax: +++ (Emax>200 and ≤300) | EC50: 0.5 to 3 µM

Cc1nc2cc(N3CCC[C@@H](N(C)C)C3)nc(-c3ccc(Cl)cc3F)c2c(=O)n1C [Example 244, (R)-5-(4-chloro-2-fluorophenyl)-7-(3-(dimethylamino)piperidin-1-yl)-2,3-dimethylpyrido[4,3-d]pyrimidin-4(3H)-one]
Emax: +++ (Emax>200 and ≤300) | EC50: 3 to 100 µM

Cc1nc2cc(N3CCO[C@@H](c4cnn(C5COC5)c4)C3)nc(-c3ccc(Cl)cc3F)c2c(=O)n1C [Example 125, 5-(4-chloro-2-fluorophenyl)-2,3-dimethyl-7-((2S)-2-(1-(3-oxetanyl)-1H-pyrazol-4-yl)-4-morpholinyl)pyrido[4,3-d]pyrimidin-4(3H)-one]
Emax: ++++ (Emax>300) | EC50: < 0.05 µM

Cc1nc2cc(N3CC[C@H](C4CC4)C3)nc(-c3ccc(Cl)cc3F)c2c(=O)n1C [Example 207, (R)-5-(4-chloro-2-fluorophenyl)-7-(3-cyclopropylpyrrolidin-1-yl)-2,3-dimethylpyrido[4,3-d]pyrimidin-4(3H)-one]
Emax: ++ (Emax>100 and ≤200) | EC50: 3 to 100 µM

CCCn1c(C)nc2cc(N3Cc4cnn(C)c4C3)nc(-c3ccc(Cl)cc3F)c2c1=O [Example 181, 5-(4-chloro-2-fluorophenyl)-2-methyl-7-(1-methyl-4,6-dihydropyrrolo[3,4-c]pyrazol-5(1H)-yl)-3-propylpyrido[4,3-d]pyrimidin-4(3H)-one]
Emax: ++++ (Emax>300) | EC50: 3 to 100 µM

Cc1nc2cc(N3C[C@@H](C)O[C@@H](c4cnn(C)c4)C3)nc(-c3ccc(Cl)cc3F)c2c(=O)n1C (single isomer, unassigned) [Example 28]
Emax: +++ (Emax>200 and ≤300) | EC50: < 0.05 µM

Cc1nc2cc(N3CCC[C@H](c4cnn(C)c4)C3)nc(-c3ccc(Cl)cc3F)c2c(=O)n1C [Example 214, (R)-5-(4-chloro-2-fluorophenyl)-2,3-dimethyl-7-(3-(1-methyl-1H-pyrazol-4-yl)piperidin-1-yl)pyrido[4,3-d]pyrimidin-4(3H)-one]
Emax: ++++ (Emax>300) | EC50: 0.05 to 0.5 µM

Cc1nc([C@H]2CN(c3cc4nc(C)n(C)c(=O)c4c(-c4ccc(Cl)cc4F)n3)CCO2)no1 (single isomer, unassigned) [Example 56]
Emax: +++ (Emax>200 and ≤300) | EC50: 3 to 100 µM

COc1ccc([C@H]2CN(c3cc4nc(C)n(C)c(=O)c4c(-c4ccc(Cl)cc4F)n3)CCO2)cc1 (single isomer, unassigned) [Example 78]
Emax: ++++ (Emax>300) | EC50: 0.05 to 0.5 µM

Cc1nc2cc(N3CCO[C@H](c4noc(C5CC5)n4)C3)nc(-c3ccc(Cl)cc3F)c2c(=O)n1C (single isomer, unassigned) [Example 85]
Emax: ++++ (Emax>300) | EC50: 3 to 100 µM

Cc1c([C@@H]2CN(c3cc4nc(C)n(C)c(=O)c4c(-c4ccc(Cl)cc4F)n3)CCO2)cnn1C (single isomer, unassigned) [Example 66]
Emax: +++ (Emax>200 and ≤300) | EC50: 0.05 to 0.5 µM

Cc1nc2cc(N3CCO[C@H]([C@@H]4CCOC4)C3)nc(-c3ccc(Cl)cc3F)c2c(=O)n1C (single isomer, unassigned) [Example 45]
EC50: 0.5 to 3 µM

Cc1cc([C@H]2CN(c3cc4nc(C)n(C)c(=O)c4c(-c4ccc(Cl)cc4F)n3)CCO2)ccn1 [Example 61, 5-(4-chloro-2-fluorophenyl)-2,3-dimethyl-7-((2S)-2-(2-methyl-4-pyridinyl)-4-morpholinyl)pyrido[4,3-d]pyrimidin-4(3H)-one]
Emax: +++ (Emax>200 and ≤300) | EC50: < 0.05 µM

Cc1nc2cc(N3CCOC(c4ccnc(C(F)(F)F)c4)C3)nc(-c3ccc(Cl)cc3F)c2c(=O)n1C (stereo not shown) [Example 94, 5-(4-chloro-2-fluorophenyl)-2,3-dimethyl-7-(2-(2-(trifluoromethyl)-4-pyridinyl)-4-morpholinyl)pyrido[4,3-d]pyrimidin-4(3H)-one]
Emax: +++ (Emax>200 and ≤300) | EC50: < 0.05 µM

Cc1nc2cc(N3CCO[C@@H](c4cnn(CCN(C)C)c4)C3)nc(-c3ccc(Cl)cc3F)c2c(=O)n1C [Example 132, 5-(4-chloro-2-fluorophenyl)-7-((2S)-2-(1-(2-(dimethylamino)ethyl)-1H-pyrazol-4-yl)-4-morpholinyl)-2,3-dimethylpyrido[4,3-d]pyrimidin-4(3H)-one]
Emax: ++++ (Emax>300) | EC50: 0.05 to 0.5 µM

Cc1nc2cc(N3CCO[C@@H](c4cnn(C)c4)C3)nc(-c3ccc(F)c(F)c3F)c2c(=O)n1C [Example 9, 2,3-dimethyl-7-((2S)-2-(1-methyl-1H-pyrazol-4-yl)-4-morpholinyl)-5-(2,3,4-trifluorophenyl)pyrido[4,3-d]pyrimidin-4(3H)-one]
Emax: +++ (Emax>200 and ≤300) | EC50: 0.05 to 0.5 µM

Cn1cc([C@H]2CN(c3cc4nc(C5CC5)n(C)c(=O)c4c(-c4ccc(Cl)cc4F)n3)CCO2)cn1 [Example 142, 5-(4-chloro-2-fluorophenyl)-2-cyclopropyl-3-methyl-7-((2S)-2-(1-methyl-1H-pyrazol-4-yl)-4-morpholinyl)pyrido[4,3-d]pyrimidin-4(3H)-one]
Emax: ++++ (Emax>300) | EC50: 0.05 to 0.5 µM

Cc1nc2cc(N3CC[C@H](c4ccncc4)C3)nc(-c3ccc(Cl)cc3F)c2c(=O)n1C [Example 254, (R)-5-(4-chloro-2-fluorophenyl)-2,3-dimethyl-7-(3-(pyridin-4-yl)pyrrolidin-1-yl)pyrido[4,3-d]pyrimidin-4(3H)-one]
Emax: ++++ (Emax>300) | EC50: 3 to 100 µM

Cc1nc2cc(N3CCC[C@H](C4CN(C)C4)C3)nc(-c3ccc(Cl)cc3F)c2c(=O)n1C [Example 252, (R)-5-(4-chloro-2-fluorophenyl)-2,3-dimethyl-7-(3-(1-methylazetidin-3-yl)piperidin-1-yl)pyrido[4,3-d]pyrimidin-4(3H)-one]
Emax: +++ (Emax>200 and ≤300) | EC50: 3 to 100 µM

Cc1noc([C@H]2CCCN(c3cc4nc(C)n(C)c(=O)c4c(-c4ccc(Cl)cc4F)n3)C2)n1 (single isomer, unassigned) [Example 112]
Emax: +++ (Emax>200 and ≤300) | EC50: 3 to 100 µM

Cc1nc2cc(N3CCO[C@H](c4cnn(C)c4)C3)nc(-c3ccc(Cl)cc3F)c2c(=O)n1C [Example 189, (R)-5-(4-chloro-2-fluorophenyl)-2,3-dimethyl-7-(2-(1-methyl-1H-pyrazol-4-yl)morpholino)pyrido[4,3-d]pyrimidin-4(3H)-one]
Emax: ++++ (Emax>300) | EC50: 0.05 to 0.5 µM

Cc1nc2cc(N3CCO[C@@H](c4cnn(C)c4)C3)nc(-c3ccc(Cl)c(F)c3F)c2c(=O)n1C [Example 14, 5-(4-chloro-2,3-difluorophenyl)-2,3-dimethyl-7-((2S)-2-(1-methyl-1H-pyrazol-4-yl)-4-morpholinyl) pyrido[4,3-d]pyrimidin-4(3H)-one]
Emax: ++++ (Emax>300) | EC50: 0.05 to 0.5 µM

CCCn1c(C)nc2cc(N3CCO[C@H](c4ccnn4C)C3)nc(-c3ccc(Cl)cc3F)c2c1=O [Example 184, (S)-5-(4-chloro-2-fluorophenyl)-2-methyl-7-(2-(1-methyl-1H-pyrazol-5-yl)morpholino)-3-propylpyrido[4,3-d]pyrimidin-4(3H)-one]
Emax: ++++ (Emax>300) | EC50: 0.05 to 0.5 µM

Cc1ccc(-c2nc(N3CCO[C@@H](c4cnn(C)c4)C3)cc3nc(C)n(C)c(=O)c23)c(F)c1 [Example 12, 5-(2-fluoro-4-methylphenyl)-2,3-dimethyl-7-((2S)-2-(1-methyl-1H-pyrazol-4-yl)-4-morpholinyl)pyrido[4,3-d]pyrimidin-4(3H)-one]
EC50: 0.05 to 0.5 µM

Cc1nc2cc(N3CCO[C@@H](c4cnn(C)c4)C3)nc(-c3ccc(Cl)cc3F)c2c(=O)n1CC(F)(F)F [Example 19, 5-(4-chloro-2-fluorophenyl)-2-methyl-7-((2S)-2-(1-methyl-1H-pyrazol-4-yl)-4-morpholinyl)-3-(2,2,2-trifluoroethyl)pyrido[4,3-d]pyrimidin-4(3H)-one]
Emax: ++++ (Emax>300) | EC50: < 0.05 µM

Cc1cc(Cl)cnc1-c1nc(N2CCOC(c3cnn(C)c3)C2)cc2nc(C)n(C)c(=O)c12 (stereo not shown) [Example 16, 5-(5-chloro-3-methyl-2-pyridinyl)-2,3-dimethyl-7-(2-(1-methyl-1H-pyrazol-4-yl)-4-morpholinyl)pyrido[4,3-d]pyrimidin-4(3H)-one]
Emax: + (Emax>45 and ≤100) | EC50: 3 to 100 µM

Cc1nc2cc(N3CCOC(c4cncc(F)c4)C3)nc(-c3ccc(Cl)cc3F)c2c(=O)n1C (stereo not shown) [Example 69, 5-(4-chloro-2-fluorophenyl)-7-(2-(5-fluoro-3-pyridinyl)-4-morpholinyl)-2,3-dimethylpyrido[4,3-d]pyrimidin-4(3H)-one]
Emax: ++++ (Emax>300) | EC50: 0.05 to 0.5 µM

Cc1cc([C@H]2C[C@@H](c3cc4nc(C)n(C)c(=O)c4c(-c4ccc(Cl)cc4F)n3)CCO2)ccn1 (single isomer, unassigned) [Example 169]
Emax: +++ (Emax>200 and ≤300) | EC50: < 0.05 µM

Cc1nc2cc(N3Cc4cccnc4C3)nc(-c3ccc(Cl)cc3F)c2c(=O)n1C [Example 247, 5-(4-chloro-2-fluorophenyl)-7-(5,7-dihydro-6H-pyrrolo[3,4-b]pyridin-6-yl)-2,3-dimethylpyrido [4,3-d]pyrimidin-4(3H)-one]
Emax: ++ (Emax>100 and ≤200) | EC50: 3 to 100 µM
